In ChEMBL document CHEMBL5584223, “Research progress of prodrugs for the treatment of cerebral ischemia” (Eur J Med Chem, 2024):
In brackets after ≈: the same amount, converted by molar mass.

Tests used:
Rattus norvegicus [1] = assay: Protection against MCAO-induced rat assessed as reduction in infarct volume in brain at 40 mg/kg, iv measured after 24 hrs relative to control; format: functional; set-up: scale not given: the % may be the effect or the level left
Platelet [2] = assay: Inhibition of ADP-induced platelet aggregation in New Zealand White rabbit; format: functional, cell-based; settings: Oryctolagus cuniculus
[3] = Lipophilicity, logP of compound; format: physicochemical; settings: octanol/water
[4] = Solubility of compound in PBS at pH 7.4; format: physicochemical
SH-SY5Y = assay: Neuroprotective activity against MPP+-induced human SH-SY5Y cells assessed as reduction in cell death at 20 uM measured after 48 hrs by MTT assay; format: functional; set-up: scale not given: the % may be the effect or the level left
Rattus norvegicus [5] = assay: Protection against MCAO-induced Sprague-Dawley rat assessed as reduction in infarct volume in brain at 20 mg/kg, iv measured for 24 hrs relative to control; format: functional; set-up: scale not given: the % may be the effect or the level left
Platelet [6] = assay: Inhibition of AA-induced platelet aggregation in New Zealand White rabbit; format: functional, cell-based; settings: Oryctolagus cuniculus
[7] = Plasma concentration in human; format: ADME
[8] = AUC (0 to infinity) in Sprague-Dawley rat at 12.5 mg/kg, iv incubated for 24 hrs by LC-MS/MS analysis; format: ADME, organism-based; settings: in vivo
[9] = AUC (0 to t) in Sprague-Dawley rat at 12.5 mg/kg, iv incubated for 24 hrs by LC-MS/MS analysis; format: ADME, organism-based; settings: in vivo
[10] = Cmax in Sprague-Dawley rat at 12.5 mg/kg, iv measured for 24 hrs by LC-MS/MS analysis; format: ADME, organism-based; settings: in vivo
[11] = Ratio of drug concentration in rat brain to plasma measured after 6 hrs by LC-MS/MS analysis; format: ADME; settings: read-out: BPR
[12] = Half life in rat at 15 mg/kg, iv measured after 24 hrs by LC-MS/MS analysis; format: ADME, organism-based; settings: in vivo
[13] = Ratio of drug concentration in rat brain to plasma measured after 1 hrs by LC-MS/MS analysis; format: ADME; settings: read-out: BPR
[14] = Ratio of drug concentration in rat brain to plasma measured after 0.5 hrs by LC-MS/MS analysis; format: ADME; settings: read-out: BPR
Platelet [15] = assay: Inhibition of ADP-induced platelet aggregation in New Zealand White rabbit at 1 uM relative to control; format: functional; settings: Oryctolagus cuniculus
Mus musculus = assay: Neuroprotective activity against hypoxia-ischemia brain injured mouse model assessed as reduction in infarct volume at 20 mg/kg, iv measured after 72 hrs by immuno-histochemistry based staining analysis relative to control; format: functional; set-up: scale not given: the % may be the effect or the level left

For `CCCC[C@H](OC(C)=O)c1ccccc1C(=O)O.N=C(N)NCCC[C@H](N)C(=O)O`, the Activity (Rattus norvegicus [1]) was 78.21%.

`Clc1ccccc1CN1CCc2sccc2C1` [TICLOPIDINE] showed an IC50 (Platelet [2]) of 360 nM.

Compound `COC(=O)[C@H]1O[C@@H](Oc2cc3oc(-c4ccc(OCCCCOC(=O)C5=CCc6cc(OC)ccc6N5C)cc4)cc(=O)c3c(O)c2O)[C@H](O)[C@H](O)[C@H]1O` (single isomer, unassigned) has a logP [3] of 1.76, a solubility [4] of 183 µg/mL (≈ 245 µM) and an Activity (SH-SY5Y) of 65%.

With `CCCC[C@H]1OC(=O)c2ccccc21` the Activity (Rattus norvegicus [5]) was 78.21%, the IC50 (Platelet [6]) was 420 nM and the IC50 (Platelet [2]) was 700 nM.

For `O=C(Nc1cc(C(F)(F)F)cc(C(F)(F)F)c1)c1cc(Cl)ccc1OP(=O)(O)O`, the Cp [7] was > 500 ng/mL.

Work on `O=P([O-])([O-])Oc1ccc(-c2cc(=S)ss2)cc1.[Na+].[Na+]` yielded an AUC [8] of 4579 h/ng/mL, an AUCt [9] of 3927.4 h/ng/mL and a Cmax [10] of 3330 ng/mL.

With `CCCCC(OC(=O)CN(C)C)c1ccccc1C(=O)Oc1ccc(/C=C/C(=O)OC[C@@H]2OC(O)[C@@H](O)[C@H](O)[C@H]2O)cc1OC` (stereo partly specified) the Kp at 6 h [11] was 4.8, the half-life [12] was 44 min and the Kp at 1 h [13] was 1.27. For the same compound, the Kp at 0.5 h [14] was 1.99.

With `CCCCC1OC(=O)c2ccccc21` (stereo not drawn) [RAC-3-N-BUTYLPHTHALIDE] the inhibition at 1 µM (Platelet [15]) was 51.4%.

`CC(=O)Oc1ccccc1C(=O)O` [ASPIRIN] showed an inhibition at 1 µM (Platelet [15]) of 73.7%.

`Cc1cc(O)n(-c2ccc(F)cc2)n1` gave an Activity (Rattus norvegicus [5]) of 32.46%.

With `CCCCC(OC(=O)CN(CC)CC)c1ccccc1C(=O)Oc1ccc(/C=C/C(=O)OCCCCO[N+](=O)[O-])cc1OC` (stereo unspecified) the Activity (Rattus norvegicus [1]) was 18.3% and the inhibition at 1 µM (Platelet [15]) was 88.5%.

`CC(=N)NCc1cccc(/C=[N+](\[O-])C(C)(C)C)c1` showed an Activity (Mus musculus) of 30%.

With `CCCC[C@H](OC(C)=O)c1ccccc1C(=O)O` the Activity (Rattus norvegicus [5]) was 66.12%.

With `CCCC[C@H](OC(=O)CN1CCC(O[N+](=O)[O-])CC1)c1ccccc1C(=O)OCCCCCCOc1ccc(-c2cc(=S)ss2)cc1` the IC50 (Platelet [6]) was 110 nM and the IC50 (Platelet [2]) was 100 nM.

Work on `O=C(O)[C@H]1O[C@@H](Oc2cc3oc(-c4ccc(O)cc4)cc(=O)c3c(O)c2O)[C@H](O)[C@@H](O)[C@@H]1O` [SCUTELLARIN] yielded a logP [3] of 0.015.
